The values below are quoted from earlier work in paper PMC9540525 (Cancer, 2022).

For data set [1] the following is noted: phase 1 dose-escalation study in R/R SCLC; cited from earlier work.
The conditions of data set [2]: phase 1 dose-escalation study in R/R SCLC; cited from earlier work. This is another data set of the same source.
For data set [3] the following is noted: first-in-human study; cited from earlier work.

As to `O=C(O)c1ccc(CN2CCC(CN[C@@H]3C[C@H]3c3ccccc3)CC2)cc1` [GSK2879552], in data set [1], the “rate of AEs” value is “the rate of AEs, especially serious AEs, was high”. Moreover, the pharmacokinetic properties entry in data set [2] is recorded as “favorable pharmacokinetic properties were demonstrated”. Take `N[C@H]1CC[C@H](N[C@@H]2C[C@H]2c2ccccc2)CC1` [iadademstat]: the toxicities entry in data set [3] is “caused toxicities, including thrombocytopenia, anemia, and febrile neutropenia, as well as deaths possibly related to iadademstat”.
